Results as given in patent EP1016409B1, “FREEZE DRIED COMPOSITION COMPRISING GLYCOSPHINGOLIPIDS” (KIRIN BEER KABUSHIKI KAISHA, priority 1997, dated 1998).

Experiment: Additives for improving re-solubility during storage, sucrose as excipient
Assay type: physicochemical
Conditions: lyophilized, KRN7000 200 µg/ml, Polysorbate 20 0.5%, Sucrose 9.6%
Protocol: First, Polysorbate 20 was dissolved in distilled water in a concentration of 0.5%, and sucrose and a variety of additives such concentrations as listed in Table 9. Next, 20 mg of the active component (KRN7000) was weighed and stirred in 100 ml of the solvents in a heated bath to 80°C for 20 minutes in order to form a solution. After cooling with running water, the mixture was filtered through a 0.22 µm filter, and transparent colorless glass vials having a volume of 5 ml were charged with a 1 ml portion of each of a variety of solutions thus obtained and subjected to lyophilization. Lyophilization was carried out under the condition of preliminary freezing at -40°C for 2 hours and drying at -20°C for 24 hours, 10°C for 12 hours, and finally at 25°C for 5 hours to give the lyophilized product. The degree of vacuum was set at 0.1 Torr or less during drying step.
After the lyophilization step, the lyophilized composition thus obtained was stored at 25°C or 50°C, or at both of these temperatures. After storage at 25°C for 1 month or at 50°C for 3 days, the lyophilized composition was reconstituted in 1 ml of distilled water for injection, left standing for 30 minutes, and solubility was judged when the foams generated on reconstitution disappeared. The samples judged in solution were further stored, and judged again of their solubility after storage at 25°C for 4 months or at 50°C for 2 weeks.
The solubility was judged by cleaning the outside of the vial and placing it beneath the white light source in a darkroom for observation with naked eye at the position of a luminous intensity of about 5,000 lux. When the sample was clear with no precipitates, it was judged that the active component was dissolved.

Re-solubility after storage (by naked eye) (Arginine, 0.1%, 50°C, 3 days): + (+ not dissolved (or deposited))
Re-solubility after storage (by naked eye) (Glycerol, 1%, 25°C, 1 month): + (+ not dissolved (or deposited))
Re-solubility after storage (by naked eye) (Glycine, 0.1%, 50°C, 3 days): + (+ not dissolved (or deposited))
Re-solubility after storage (by naked eye) (Glycine, 1%, 50°C, 3 days): + (+ not dissolved (or deposited))
Re-solubility after storage (by naked eye) (Histidine, 2%, 50°C, 2 weeks): - (- dissolved)
Re-solubility after storage (by naked eye) (Histidine, 2%, 50°C, 3 days): - (- dissolved)
Re-solubility after storage (by naked eye) (Pluronic F68, 0.1%, 25°C, 1 month): - (- dissolved)
Re-solubility after storage (by naked eye) (Pluronic F68, 0.1%, 25°C, 4 month): + (+ not dissolved (or deposited))
Re-solubility after storage (by naked eye) (Pluronic F68, 1%, 25°C, 1 month): - (- dissolved)
Re-solubility after storage (by naked eye) (Pluronic F68, 1%, 25°C, 4 month): + (+ not dissolved (or deposited))
Re-solubility after storage (by naked eye) (Propylene glycol, 1%, 25°C, 1 month): + (+ not dissolved (or deposited))
Re-solubility after storage (by naked eye) (Sodium deoxycholate, 0.1%, 25°C, 1 month): - (- dissolved)
Re-solubility after storage (by naked eye) (Sodium deoxycholate, 0.1%, 25°C, 4 month): + (+ not dissolved (or deposited))
Re-solubility after storage (by naked eye) (Sodium deoxycholate, 1%, 25°C, 1 month): - (- dissolved)
Re-solubility after storage (by naked eye) (Sodium deoxycholate, 1%, 25°C, 4 month): - (- dissolved)
Re-solubility after storage (by naked eye) (Sodium deoxycholate, 1%, 50°C, 2 weeks): - (- dissolved)
Re-solubility after storage (by naked eye) (Sodium deoxycholate, 1%, 50°C, 3 days): - (- dissolved)
Re-solubility after storage (by naked eye) (no additive, 25°C, 1 month): - (- dissolved)
Re-solubility after storage (by naked eye) (no additive, 25°C, 4 month): + (+ not dissolved (or deposited))
Re-solubility after storage (by naked eye) (no additive, 50°C, 3 days): + (+ not dissolved (or deposited))
SMILES: CCCCCCCCCCCCCCCCCCCCCCCCCC(=O)N[C@@H](CO[C@H]1O[C@H](CO)[C@H](O)[C@H](O)[C@H]1O)[C@H](O)[C@H](O)CCCCCCCCCCCCCC [KRN7000, (2S,3S,4R)-1-(α-D-galactopyranosyloxy)-2-hexacosanoylamino-3,4-octadecanediol]
